Here are results for four compounds from patent publication US20090048292A1, “SYNERGISTIC COMBINATION” (priority 2007, published 2009).

Several values for one entry are separate records, joined by “and”; a condition that tells them apart may be missing. Equal entries are not always repeated.

Experiment [1] deals with human SK-Mel28 melanoma cells. Description: Different angiogenesis inhibitors as monotherapy in human melanoma model SK-Mel28 (FIG. 1). It is filed as in vivo. The note with it: daily treatment from tumor size 20-30 mm^2; ZK261991 orally 50 mg/kg per day. The method, then:
Human SK-MeI 28 melanoma cells were cultivated in RPMI1640 medium together with 1% glucose and 10% foetal calf serum. 3 million cells per animal have been transferred to NMRI nu/nu nude mice in a volume of 0,1 ml in a 1:1 mixture consisting of media and matri gel. With achieving the tumor size of about 20 mm^2, in this case on day 3, the treatment of the animals has been started.
In a human melanoma model SK-Mel28 different angiogenesis inhibitors have been tested. […] In this experiment the tumor have been daily treated with different compounds beginning after establishment of the tumors, respectively at a size of 20-30 mm^2. The compound ZK261991 was orally applied in a dosage of 50 mg/kg per day and in a volume of 0.1 ml/10 g body weight, as a 5% DMSO/Ethanol 1:1 mixture in 0.085 Myrj85®/0.9% NaCl formulation. ZK222584 (PTK/ZK, Vatalanib) comprised in the same formulation was applied. Further Bay43-9006 (Nexavar®) in 30% hydroxy propyl cyclodextrine (HP-β-CD), pH 5.0 in the same volume of 0.1 ml/10 g body weight was applied. […] However, no reaction could be determined with a dosage of 5 and 10 mg/kg (s. FIG. 2). The tumors have been treated in a daily manner with different MS-275 dosages, beginning with the set up at a size of ca. 20-30 mm^2. MS-275 was applied in 30% hydroxypropyl cyclodextrine (HP-β-CD), pH5.0, in a volume of 0.1 ml/10 g body weight.

Experiment [2] has as its system Human SK-MeI 28 melanoma cells. Description: Combination study of ZK 261991 and MS-275 in human SK-Mel 28 melanoma model in NMRI nu/nu nude mice (tumor area, tumor weight). It is filed as in vivo. To be noted: for Tumor area on day 57, average: group average; for Tumor area of the single studied groups on day 57: single animals.
Description: For this, the animals have been randomized and separated into the following test group (8 animals per group, each):
MS-275; 10 mg/kg/day 3. […] Untreated control (these animals received the solution solvent, only)
The compounds are orally daily applied via a probang till the end of the experiment on day 57. The tumor size was determined (length×width) after 6-7 days. On day 57, the animals were sacrificed by breaking the neck and the tumors were isolated. The weight of the tumors was determined. The tumor size (tumor area in mm^2) was inserted into a diagram, as function of the time. An average of the tumor weight of each group was calculated, as well as the variation and was inserted into a diagram. In the same time interval the tumor size was determined, also the body weight was determined by balancing. The data were inserted in a diagram as function of the time.
The tumors were treated in a daily manner with the different compounds beginning with the establishment, at a size of ca. 20.30 mm^2. […] For the calculation of the statistically signification the SigmaStat-programm with the One-Way-ANOVA-analysis was used.
For the calculation of the statistically significance the SigmaStat-program with a One-Way-ANOVA-analysis was used.
Setting [3] is: day 57, ZK261991 50 mg/kg/day, MS-275 10 mg/kg/day, oral daily, alone or combined.

Take `CNC(=O)c1cc(Oc2ccc(NC(=O)Nc3ccc(Cl)c(C(F)(F)F)c3)cc2)ccn1` [Bay43-9006]: in experiment [1], the “inhibitory effect onto the tumor growth, FIG. 1” value is “No inhibitory effect”.
In the case of `Nc1ccccc1NC(=O)c1ccc(CNC(=O)OCc2cccnc2)cc1` [MS-275, 3-pyridylmethyl-N-{4-[(2-amino-phenyl)-carbamoyl]benzyl}carbamate], the “reduction of the tumor weight in comparison to the untreated control (percentage of inhibition)” value in experiment [2] (setting [3]) is 0%. The “Tumor area on day 57, average” value in experiment [2] (MS-275 10 mg/kg/day oral daily, day 57) was 135.7 mm^2. Further, in experiment [2] (MS-275 10 mg/kg/day oral daily, day 57, 10 mg/kg/day), the “Tumor area of the single studied groups on day 57” value was 132.1 mm^2 and 169.1 mm^2 and 142.9 mm^2 and 128.6 mm^2 and 169.2 mm^2 and 104.2 mm^2 and 112.1 mm^2 and 127.2 mm^2.
Consider `Clc1ccc(Nc2nnc(Cc3ccncc3)c3ccccc23)cc1` [ZK222584, Vatalanib], for which the “inhibitory effect onto the tumor growth, FIG. 1” value in experiment [1] is given as “No inhibitory effect”.
Consider `CN(C)C(=O)Nc1cc(CNc2ccccc2C(=O)Nc2ccc3cn(C)nc3c2)ccn1` [ZK 261991, N′2′-{[2-(3,3-Dimethylureido)pyridine-4-yl]methyl}-N-(2-methyl-2H-indazol-6-yl)Anthranilamid], for which the “reaction of tumor growth (tumor area) to treatment, FIG. 3” value in experiment [2] (daily oral treatment, ZK261991 50 mg/kg/day, MS-275 10 mg/kg, alone or combined, One-Way-ANOVA) is recorded as “statistically significant but moderate result”. For the same compound, in experiment [2] (setting [3]), the “T/C value (tumor weight)” value worked out at 0.55 and the “reduction of the tumor weight in comparison to the untreated control (percentage of inhibition)” value was 45%. The “Tumor area on day 57, average” value in experiment [2] (ZK 261991 50 mg/kg/day oral daily, day 57) was 104.7 mm^2. Further, the “Tumor area of the single studied groups on day 57” value in experiment [2] (ZK 261991 50 mg/kg/day oral daily, day 57, 50 mg/kg/day) is 109.5 mm^2 and 100.1 mm^2 (2×) and 105.0 mm^2 and 118.8 mm^2 and 88.8 mm^2 and 116.3 mm^2 and 98.9 mm^2. Moreover, the “inhibitory effect onto the tumor growth, FIG. 1” value in experiment [1] was “No inhibitory effect”.
